What was measured:
Type in all cases: binding
Details in all cases: Compound Concentration 10 µM
[1] = target: T1, panel of 442 kinases (Homo sapiens, UniProt P42336, C420R)
T1 construct: purchased KINOMEscan
From the text: (§1) We assessed the selectivity of members of this scaffold using the KINOMEscan methodology across a near comprehensive panel of 442 kinases [[18,27]].

[2] = target: T2, panel of 442 kinases (Homo sapiens, UniProt P42336, E545A)
T2 construct: purchased KINOMEscan
From the text: as §1

[3] = target: T3, panel of 442 kinases (Homo sapiens, UniProt Q13523)
T3 construct: purchased KINOMEscan
T3 sequence (Q13523 whole entry): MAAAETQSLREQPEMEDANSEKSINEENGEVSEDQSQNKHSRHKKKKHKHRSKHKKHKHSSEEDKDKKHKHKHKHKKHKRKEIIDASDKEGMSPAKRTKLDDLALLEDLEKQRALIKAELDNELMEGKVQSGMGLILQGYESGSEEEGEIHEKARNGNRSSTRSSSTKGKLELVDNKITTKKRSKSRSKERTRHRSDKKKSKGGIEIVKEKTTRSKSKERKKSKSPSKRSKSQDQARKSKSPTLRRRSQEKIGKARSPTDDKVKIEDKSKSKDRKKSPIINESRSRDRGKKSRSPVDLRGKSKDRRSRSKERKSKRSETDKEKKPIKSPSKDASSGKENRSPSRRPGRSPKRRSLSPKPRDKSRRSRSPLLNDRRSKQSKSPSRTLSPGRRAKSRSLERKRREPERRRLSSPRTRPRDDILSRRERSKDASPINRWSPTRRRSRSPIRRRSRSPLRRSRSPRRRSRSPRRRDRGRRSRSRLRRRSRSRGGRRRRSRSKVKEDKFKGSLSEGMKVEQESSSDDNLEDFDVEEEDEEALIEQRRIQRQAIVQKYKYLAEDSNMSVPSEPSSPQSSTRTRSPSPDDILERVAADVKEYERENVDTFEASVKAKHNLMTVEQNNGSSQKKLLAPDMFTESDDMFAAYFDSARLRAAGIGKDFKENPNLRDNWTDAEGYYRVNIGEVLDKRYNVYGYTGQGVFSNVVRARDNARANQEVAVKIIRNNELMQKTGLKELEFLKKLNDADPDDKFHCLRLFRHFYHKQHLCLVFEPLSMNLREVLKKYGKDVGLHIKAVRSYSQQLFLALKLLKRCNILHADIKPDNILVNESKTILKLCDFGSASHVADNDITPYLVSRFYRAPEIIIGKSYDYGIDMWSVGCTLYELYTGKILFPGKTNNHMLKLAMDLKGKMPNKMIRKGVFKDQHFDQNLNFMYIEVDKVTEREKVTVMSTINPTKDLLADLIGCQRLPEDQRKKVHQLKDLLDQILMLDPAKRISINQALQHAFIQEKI
From the text: as §1

T1 sequence (P42336 whole entry C420R): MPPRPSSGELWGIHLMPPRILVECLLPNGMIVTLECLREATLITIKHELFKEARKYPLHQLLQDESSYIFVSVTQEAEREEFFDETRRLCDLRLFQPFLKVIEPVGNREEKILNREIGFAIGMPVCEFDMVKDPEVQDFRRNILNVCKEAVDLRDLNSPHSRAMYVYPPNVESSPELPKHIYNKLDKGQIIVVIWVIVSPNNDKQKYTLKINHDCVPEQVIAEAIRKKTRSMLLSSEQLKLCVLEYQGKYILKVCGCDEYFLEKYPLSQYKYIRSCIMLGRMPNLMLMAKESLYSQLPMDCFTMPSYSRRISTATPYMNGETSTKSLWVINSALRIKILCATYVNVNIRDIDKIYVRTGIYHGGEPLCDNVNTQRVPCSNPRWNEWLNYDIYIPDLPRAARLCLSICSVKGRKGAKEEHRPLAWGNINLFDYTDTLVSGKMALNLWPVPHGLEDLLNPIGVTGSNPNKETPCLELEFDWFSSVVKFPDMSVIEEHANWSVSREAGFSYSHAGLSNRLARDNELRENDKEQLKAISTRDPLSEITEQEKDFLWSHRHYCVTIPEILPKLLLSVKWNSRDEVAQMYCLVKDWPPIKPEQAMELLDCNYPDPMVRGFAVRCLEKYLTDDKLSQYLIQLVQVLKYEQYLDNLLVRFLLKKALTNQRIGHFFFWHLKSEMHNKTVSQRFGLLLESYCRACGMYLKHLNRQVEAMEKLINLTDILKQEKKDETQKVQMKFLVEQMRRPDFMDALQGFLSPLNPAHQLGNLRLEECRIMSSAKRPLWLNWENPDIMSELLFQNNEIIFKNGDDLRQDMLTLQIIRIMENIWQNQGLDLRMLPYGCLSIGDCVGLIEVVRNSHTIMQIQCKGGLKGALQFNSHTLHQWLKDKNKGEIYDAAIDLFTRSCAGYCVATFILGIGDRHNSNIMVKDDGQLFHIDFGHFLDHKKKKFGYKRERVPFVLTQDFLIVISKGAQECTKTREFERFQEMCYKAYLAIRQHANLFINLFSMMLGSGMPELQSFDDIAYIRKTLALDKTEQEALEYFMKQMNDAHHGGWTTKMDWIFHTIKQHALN
T2 sequence (P42336 whole entry E545A): as the sequence (P42336 whole entry C420R) above, with R420C, E545A counted along it

Row | Structure (SMILES) | KINOMEscan: PIK3CA(C420R) [1] | KINOMEscan: PIK3CA(E545A) [2] | KINOMEscan: PRP4 [3]
1 | COc1cc(C(=O)N2CCC(N3CCN(C)CC3)CC2)ccc1Nc1ncc2c(n1)N(C)c1ccccc1C(=O)N2C [15 (LRRK2-IN-1)] | 89 | 98 | 93
2 | COc1cc(C(=O)N2CCC(N3CCN(C)CC3)CC2)ccc1Nc1ncc2c(n1)N1CCc3cccc(c31)C(=O)N2C [Compound 24] | – | 68 | –
3 | COc1cc(C(=O)N2CCC(N3CCN(C)CC3)CC2)ccc1Nc1ncc2c(n1)N(C1CCCC1)c1ccccc1C(=O)N2C [Compound 25, 11-cyclopentyl-2-((2-methoxy-4-(4-(4-methylpiperazin-1-yl)piperidine-1-carbonyl)phenyl)amino)-5-methyl-5H-benzo[e]pyrimido[5,4-b][1,4]diazepin-6(11H)-one] | 100 | 85 | 95
4 | CCOc1cc(C(=O)N2CCC(N3CCN(C)CC3)CC2)ccc1Nc1ncc2c(n1)N(C1CCCC1)c1ccccc1C(=O)N2C [Compound 26] | 99 | 91 | 100
